Assay results reported in US11679100B2, “Methods of enhancing immunity” (The Regents of the University of California, priority 2018, dated 2023).

Tested on: LLC lung tumor
Assay: LA1 treatment of subcutaneous LLC tumors
Assay type: in vivo, mice
Description: LA1 treatment of LLC: 7.5×10^5 LLC cells were injected subcutaneously (s.c.) into the right flank of syngeneic 6- to 8-week old WT or CD11b^−/− mice. At 5-8 days post tumor inoculation, tumor-bearing mice were divided into the following treatment groups: Vehicle (6% DMSO, 1% Tween-20 in saline), LA1 (6 mg/kg dissolved in vehicle). Vehicle and LA1 was administered by intraperitoneal injection (i.p.) daily. Tumor burden was evaluated 2-3 times a week by caliper measurements and tumor volumes were calculated using the equation (l^2×w)/2. Tumors were harvested at 3 weeks post-tumor inoculation, formalin fixed, cryopreserved in OCT, or collagenase-digested for flow cytometric analysis.
Immunohistochemistry—Tumor samples were collected and cryopreserved in O.C.T. Sections (5 μm) were fixed in 100% cold acetone, blocked with 8% normal goat serum for 2 hours, and incubated with primary antibodies at […] for 2 hours at room temperature. Sections were washed 3 times with PBS and incubated with fluorescent secondary antibodies. Primary antibodies where: F4/80 (BM8, eBioscience), CD4 (H129.19, BD Bioscience), CD8 (53-6.7, BD Bioscience), CD31 (MEC13.1, BD Bioscience), desmin (RB0914-P1, LabVision, Thermo Scientific), and anti-smooth muscle actin (SMA) (1A4, Sigma-Aldrich). Slides were counterstained with 4′,6-diamidino-2-phenylindole (DAPI) to identify nuclei. Immunofluorescence images were collected on a Nikon microscope (Eclipse TE2000-U) and analyzed using Metamorph image capture and analysis software (Version 6.3r5, Molecular Devices). Pixels/field or cell number/field were quantified in five 100× fields from 5 biological replicates. For LA1 studies, immunohistochemical staining was quantified by counting marker positive cells in 3 different areas analyzed at 40× using a light microscope for each tumor tissue (n=4−6). Tissues that were stained with fluorochrome conjugated secondary antibodies were counter stained with DAPI and analyzed using the Zeiss 700 LSM confocal microscope and Zen software (Carl Zeiss Group, Hartford, Conn.).
Alternatively, immunostaining was performed on formalin fixed, paraffin-embedded tumor tissues. Deparaffinized tissue sections (5 μm) were either stained with hemotoxylin-eosin or were subjected to antigen retrieval by steam heating in an acidic pH solution (Citrate-based, Vector Laboratories) prior to immune staining for α-SMA (clone 1A4, Fisher Scientific), MMP9 (polyclonal rabbit, Abcam), S100A8 (goat polyclonal (M-19), Santa Cruz), CD31 (clone RM0032-1D12, Abcam), or ARG1 (sc-18351, Santa Cruz) at 4° C. overnight. Sections were washed and incubated with the appropriate fluorochrome conjugated secondary antibody (Invitrogen Life Technologies, Grand Island, N.Y.) or biotinylated secondary antibodies diluted in blocking buffer for 1 hr. at RT. For sections that were stained with biotinylated secondary antibodies, signal development was accomplished by using the DAB Substrate Kit (Vector Laboratories).
Flow Cytometry Staining and Analysis—Single cell suspensions (10^6 cells in 100 μL total volume) were incubated with Aqua Live Dead fixable stain (Life Technologies, Carlsbad, Calif.), FcR-blocking reagent (BD Biosciences, San Jose, Calif.) and fluorescently labeled antibodies and incubated at 4° C. for 1 h. Primary antibodies were: BV605-F4/80 (clone BM8, Biolegend #123133, 1.25 μg/ml), Alexa 700-CD45 (clone 30-F11, eBioscience #56-0451, ×0.6 μg/ml), CD11b-APC (clone M1/70, eBioscience #17-0012, 0.3 μg/ml), FITC-Gr1 (clone RB6-8C5, eBioscience #11-5931, 3 μg/ml), eF780-CD3 (clone 145-2C11, eBioscience #47-0031, 5 μg/ml), PE-Dazzle-CD4 (clone RM4-5, Biolegend #100565, 0.4 μg/ml), and BV605-CD8 (clone 53-6.7, Biolegend #100743, 1.75 μg/ml). Multicolor FACS Analysis was performed on a BD Canto RUO 11 Color Analyzer. All data analysis was performed using the flow cytometry analysis program FloJo (Treestar).

O=C(O)c1ccc(-c2ccc(/C=C3\SC(=S)N(Cc4ccccc4)C3=O)o2)cc1 [LA1, leukadherin 1]
LLC lung tumor growth in Itgam-/- mice (LA1 6 mg/kg i.p. daily, Itgam-/- mice): not in Itgam−/− mice
LLC lung tumor growth in WT mice (LA1 6 mg/kg i.p. daily, WT mice): inhibited murine LLC lung tumor growth in WT
CD8+ T cells in tumors (LLC tumors): increased the presence of CD8+ T cells
MHCII+ macrophages in tumors (LLC tumors): increased the presence of MHCII+ macrophages
expression of S100A8 and MMP9 in CD11b+ cells (LLC tumors): inhibited expression of S100A8 and MMP9 in CD11b+ cells in LLC tumors
numbers of SMA+ blood vessels in tumors (tumors of FIGS. 5G, 5I and 5J (CL66, MDA-MB-231, LLC)): decreasing the numbers of SMA+blood vessels
